Source: patent US12486227B2, “Small molecules for cancer therapy that reduce the expression of transcription factors KLF5 and EGR-1” (University of Florida Research Foundation, Incorporated, priority 2019, dated 2025)
Where two headings read alike, the source gives them in different places.

Tests used:
[1] = system: DLD-1 and HCT116 CRC cells; test: Cell cycle analysis by flow cytometry (propidium iodide); type: cell-based, human; conditions: 10 μM, over three days
Description: SR18662 alters the cell cycle pattern of CRCs. […] We have also evaluated the impact of SR15006 and SR18662 on cell cycle progression. We treated DLD-1 and HCT116 CRC cells over the course of three days with vehicle or 1 μM or 10 μM of test compound and then analyzed cell cycle using flow cytometry.
Cell proliferation, cell cycle and apoptosis assays. For cell proliferation experiments, cell cycle, and apoptosis determination, DLD-1 and HCT116 cells were treated with 1 or 10 μM of each compound or with vehicle (DMSO). The cells were collected at 24, 48, and 72 h post-treatment and analyzed as previously described (24). Each experiment was performed in triplicate.

DLD-1 colon cancer cells = test: MTT viability assay, DLD-1; type: cell-based; conditions: Homo sapiens
Source text: Specific Examples of compounds of the present disclosure have EC50 values estimated using a cell-based assay for binding to the KLF5 promoter and, in many cases, a follow-up viability assay (MTT) using DLD-1 colon cancer cells, a cell line known to highly express KLF5 and whose growth is adversely affected by the reduction of KLF5 levels. Assay protocols follow those described in the literature.^22,23 Other assays that are not described here but that are standard in the field may also be useful in establishing mechanism of action of these compounds.

KLF5 = test: Western blot of KLF5 protein levels in DLD-1 cells; type: cell-based, human; conditions: 1 μM and 10 μM, 24 h
Description: In this experiment the test compounds were at 1 μM and 10 μM, and protein levels were measured after 24 h.
(§1) Western blot analysis. Total protein was extracted from cells with Laemmli buffer and the analysis was performed as described previously (24).

MAPK pathway = test: Western blot of MAPK signaling pathway components; type: cell-based, human; conditions: DLD-1 and HCT116, 10 μM, 72 h
Source text: SR18662 negatively regulates MAPK and WNT signaling pathway and cyclin levels. Myriad publications have shown that in both in vitro and in vivo contexts KLF5 is regulated by MAPK and WNT signaling pathways and that KLF5, in turn, has the ability to modulate the activity of these pathways (14, 18, 26-32). We have previously shown that treatment of CRCs with ML264 results in decreased activity of both the MAPK and WNT signaling pathways (24). Because SR15006 and SRI8662 are structurally related to ML264, we decided to investigate their ability to alter the expression levels of the components of these pathways. Thus, we treated DLD-1 and HCT116 CRCs with DMSO (vehicle) and tested compounds at 1 μM or 10 μM, collecting the cells for western blot analysis at 24, 48, and 72 h. […] Similar effects were seen when both cell lines were treated these compounds at 1 μM. Furthermore, the inhibitory effects of SR18662 on the components of the MAPK signaling pathway we observed at earlier time points than were apparent following treatment with ML264 or SR15006.
as §1

Cyclin D1, E, A2, and B1 = test: Western blot of cyclin levels; type: cell-based, human; conditions: DLD-1 and HCT116, 1 μM or 10 μM, 72 h
Source text: Cyclins and their appropriate cyclin-dependent kinases form a regulatory network that allow cells to progress through the cell cycle (39, 40). […] SR15006, or SR18662, as compared to vehicle-treated cells. Thus, we investigated if these changes are accompanied by differences in the expression levels of cyclins. We focused our attention on Cyclin D1, E, A2, and B1, as we have previously shown that ML264 has inhibitory effect on their levels (24). […] Additionally, in contrast to ML264 or SR15006, SR18862 induced apoptosis and cell death.
as §1

human KLF5 promoter = test: KLF5 promoter activity luciferase assay in DLD-1/pGL4.18hKLF5p cells; type: cell-based; conditions: for EC50: read-out: Approximate potency (EC50 · mol/L) (luciferase)
Description: To examine the impact of these compounds on viability of CRC cell lines, we performed cell proliferation and cell growth assays using DLD-1 and HCT116 CRC cells. […] KLF5 promoter activity assay. DLD-1/pGL4.18hKLF5p cells were seeded in 96 well plate format and treated with DMSO or with test compounds dissolved in DMSO in the range of 0.001 to 20 μM final concentration for 24 h and the human KLF5 promoter activity was determined with the ONE-Glo luciferase assay system (Promega) using a SpectramMax M3 (Molecular Devices) plate reader. The IC50 values were calculated using GraphPad Prism version 5.00 for Windows (GraphPad Software) (22).

[2] = system: DLD-1-derived tumor xenografts; conditions: once a day 25 mg/kg; cited from earlier work
[3] = system: SW-620 colorectal cancer cell line; test: MTT growth assay, SW-620; type: cell-based; conditions: Homo sapiens, Table 1
Source text: (§2) The observed activity is greater than that previously seen for ML264.

[4] = system: HT-29 colorectal cancer cell line; test: MTT growth assay, HT-29; type: cell-based; conditions: Homo sapiens, Table 1
Source text: as §2

[5] = system: HCT-116 colorectal cancer cell line; test: MTT growth assay, HCT-116; type: cell-based; conditions: Homo sapiens, Table 1
Source text: as §2

[6] = Table 2, read-out: Approximate potency (EC50 · mol/L) (DLD1, MTT assay)

Row | SMILES | EC50 (DLD-1 colon cancer cells; [6]) | EC50 (human KLF5 promoter; Homo sapiens, DLD-1, Table 2) | other results
1 | CS(=O)(=O)N1CCN(C(=O)CNC(=O)/C=C/c2cccc(Cl)c2)CC1 [Example 1, (E)-3-(3-chlorophenyl)-N-(2-(4-(methylsulfonyl)piperazin-1-yl)-2-oxoethyl)acrylamide] | 16.3 nM | 41.6 nM | cell cycle distribution [1]: affected the cell cycle in the similar way as did ML264; KLF5 protein levels by Western blot (KLF5): significantly reduced; expression levels of MAPK pathway components (MAPK pathway): negatively regulated the expression levels of the components of the MAPK pathway; levels of cyclins (Cyclin D1, E, A2, and B1): significant reduction in the levels of tested cyclins; IC50 (human KLF5 promoter; Homo sapiens, DLD-1, 24 h treatment, FIG. 1B, read-out: IC50, human KLF5 promoter activity): 41.6 nM
2 | CS(=O)(=O)NCC1CCN(C(=O)CNC(=O)/C=C/c2cccc(Cl)c2)CC1 [Example 2, (E)-3-(3-chlorophenyl)-N-(2-(4-(methylsulfonamidomethyl)piperidin-1-yl)-2-oxoethyl)acrylamide] | 140 nM | 1410 nM | 
3 | CS(=O)(=O)NCC1CCN(C(=O)CNC(=O)/C=C/c2cccc(Cl)c2)C1 (centres unmarked) [Example 3, (E)-3-(3-chlorophenyl)-N-(2-(3-(methylsulfonamidomethyl)pyrrolidin-1-yl)-2-oxoethyl)acrylamide] |  | 846 nM | 
4 | CS(=O)(=O)N1CCC(CNC(=O)CNC(=O)/C=C/c2cccc(Cl)c2)CC1 [Example 4, (E)-3-(3-chlorophenyl)-N-(2-(((1-(methylsulfonyl)piperidin-4-yl)methyl)amino)-2-oxoethyl)acrylamide] | 2730 nM |  | 
5 | CS(=O)(=O)N1CCC(CNC(=O)CNC(=O)/C=C/c2cccc(Cl)c2)C1 (centres unmarked) [Example 5, (E)-3-(3-chlorophenyl)-N-(2-(((1-(methylsulfonyl)pyrrolidin-3-yl)methyl)amino)-2-oxoethyl)acrylamide] | 3.26 nM |  | 
6 | CS(=O)(=O)N1CCCN(C(=O)CNC(=O)/C=C/c2cccc(Cl)c2)CC1 [Example 6, (E)-3-(3-chlorophenyl)-N-(2-(4-(methylsulfonyl)-1,4-diazepan-1-yl)-2-oxoethyl)acrylamide] |  | 1080 nM | 
7 | O=C(/C=C/c1cccc(Cl)c1)NCC(=O)N1CCN(S(=O)(=O)C2CCCCC2)CC1 [Example 7, (E)-3-(3-chlorophenyl)-N-(2-(4-(cyclohexylsulfonyl)piperazin-1-yl)-2-oxoethyl)acrylamide] | 347 nM | 1280 nM | 
8 | CC(C)CS(=O)(=O)N1CCN(C(=O)CNC(=O)/C=C/c2cccc(Cl)c2)CC1 [Example 8, (E)-3-(3-chlorophenyl)-N-(2-(4-(isobutylsulfonyl)piperazin-1-yl)-2-oxoethyl)acrylamide] | 322 nM | 7050 nM | 
9 | COc1ccc(/C=C/C(=O)NCC(=O)N2CCN(S(C)(=O)=O)CC2)cc1Cl [Example 10, (E)-3-(3-chloro-4-methoxyphenyl)-N-(2-(4-(methylsulfonyl)piperazin-1-yl)-2-oxoethyl)acrylamide] | 63.8 nM | 170 nM | 
10 | CS(=O)(=O)N1CCN(C(=O)CNC(=O)/C=C/c2ccc(F)c(Cl)c2)CC1 [Example 11, (E)-3-(3-chloro-4-fluorophenyl)-N-(2-(4-(methylsulfonyl)piperazin-1-yl)-2-oxoethyl)acrylamide] | 25.3 nM | 26.1 nM | 
11 | CS(=O)(=O)N1CCN(C(=O)CNC(=O)/C=C/c2cccc(Br)c2)CC1 [Example 12, (E)-3-(3-bromophenyl)-N-(2-(4-(methylsulfonyl)piperazin-1-yl)-2-oxoethyl)acrylamide] | 73.5 nM | 87.8 nM | 
12 | CS(=O)(=O)N1CCN(C(=O)CNC(=O)/C=C/c2cc(Cl)cc(Cl)c2)CC1 [Example 13, (E)-3-(3,5-dichlorophenyl)-N-(2-(4-(methylsulfonyl)piperazin-1-yl)-2-oxoethyl)acrylamide] | 78.1 nM | 108 nM | 
13 | CS(=O)(=O)N1CCN(C(=O)CNC(=O)/C=C/c2ccc(F)c(F)c2)CC1 [Example 14, (E)-3-(3,4-difluorophenyl)-N-(2-(4-(methylsulfonyl)piperazin-1-yl)-2-oxoethyl)acrylamide] | 41 nM | 46.1 nM | 
14 | Cc1ccc(/C=C/C(=O)NCC(=O)N2CCN(S(C)(=O)=O)CC2)cc1Cl [Example 15, (E)-3-(3-chloro-4-methylphenyl)-N-(2-(4-(methylsulfonyl)piperazin-1-yl)-2-oxoethyl)acrylamide] | 3.63 nM | 6.28 nM | 
15 | CS(=O)(=O)N1CCN(C(=O)CNC(=O)/C=C/c2ccc(C(F)(F)F)c(Cl)c2)CC1 [Example 16, (E)-3-(3-chloro-4-(trifluoromethyl)phenyl)-N-(2-(4-(methylsulfonyl)piperazin-1-yl)-2-oxoethyl)acrylamide] | 315 nM |  | Approximate potency (EC50 · mol/L) (luciferase) (human KLF5 promoter; Table 2): Not converged
16 | CS(=O)(=O)N1CCN(C(=O)CNC(=O)/C=C/c2ccc(OC(F)(F)F)c(Cl)c2)CC1 [Example 17, (E)-3-(3-chloro-4-(trifluoromethoxy)phenyl)-N-(2-(4-(methylsulfonyl)piperazin-1-yl)-2-oxoethyl)acrylamide] | 1610 nM | 7910 nM | 
17 | CS(=O)(=O)N1CCN(C(=O)CNC(=O)/C=C/c2ccc3c(c2)OCO3)CC1 [Example 18, (E)-3-(benzo[d][1,3]dioxol-5-yl)-N-(2-(4-(methylsulfonyl)piperazin-1-yl)-2-oxoethyl)acrylamide] | 15.3 nM | 20.1 nM | 
18 | CN(C(=O)CNC(=O)/C=C/c1cccc(Cl)c1)C1CCS(=O)(=O)CC1 [ML264, reference compound] |  |  | growth of CRC xenografts [2]: significantly reduced the growth; EC50 [3]: 412 nM; cell cycle distribution [1]: significant decrease in the number of cells in G0/G1 and an increase in cells in S- and G2/M phases; EC50 [4]: 295 nM; EC50 [5]: 34 nM; EC50 (DLD-1 colon cancer cells; MTT, Table 1, read-out: EC50 (nM) DLD-1): 13 nM; KLF5 protein levels by Western blot (KLF5): significantly reduced; expression levels of MAPK pathway components (MAPK pathway): negatively regulated the expression levels of the components of the MAPK pathway; levels of cyclins (Cyclin D1, E, A2, and B1): significant reduction in the levels of tested cyclins
